Laboratory results: patent US20260176320A1, “MODULATORS OF G-PROTEIN COUPLED RECEPTORS” (priority 2018, published 2026)
Like-named read-outs stand apart in the source and are kept apart here. Square brackets hold non-standard residues; d marks the D form. Peptide text beside a SMILES is read from it. * marks the point of attachment. X1 = O=C(CSCC(=O)*)NCCN1C(=O)c2ccccc2C1=O; Aib = CC(C)(N)C(=O)O

Tests used:
Format in all cases: cell-based
GIP-R = biological target: T1, GIP-R (Homo sapiens, UniProt P48546); assay: HitHunter cAMP assay (GIP-R); details: cAMP; for Emax: read-out: (Emax) GIP-R
T1 sequence (P48546 22-466): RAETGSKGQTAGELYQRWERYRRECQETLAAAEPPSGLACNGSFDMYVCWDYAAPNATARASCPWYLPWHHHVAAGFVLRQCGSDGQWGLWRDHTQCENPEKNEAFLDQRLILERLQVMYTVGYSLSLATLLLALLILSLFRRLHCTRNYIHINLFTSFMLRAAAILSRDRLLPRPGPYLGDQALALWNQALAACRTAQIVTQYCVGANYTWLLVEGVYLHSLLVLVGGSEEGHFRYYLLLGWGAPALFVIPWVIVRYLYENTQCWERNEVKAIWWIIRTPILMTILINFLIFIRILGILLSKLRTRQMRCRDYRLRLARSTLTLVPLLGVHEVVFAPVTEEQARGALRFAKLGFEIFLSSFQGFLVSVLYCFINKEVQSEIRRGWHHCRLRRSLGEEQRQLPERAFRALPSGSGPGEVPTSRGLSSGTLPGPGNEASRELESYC
Summary of the method: (§1)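 Agonist stimulation lasts 30 min at room temperature on 10,000 cells per well, with phosphodiesterase blocked by 625 μM IBMX. Accumulated cAMP is quantified by competitive antibody luminescence after overnight development.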

GLP-1R [1] = biological target: T2, GLP-1R (Homo sapiens, UniProt P43220); assay: PathHunter β-arrestin assay
Summary of the method: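 Recruitment of β-arrestin is measured by luminescence after cells, plated overnight, receive serially diluted agonist for 90 min at 37 °C in medium with 0.2% BSA. Detection reagent then develops for 3 h at room temperature, protected from light.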

GLP-1R [2] = biological target: T2, GLP-1R; assay: HitHunter cAMP assay (GLP-1R); details: cAMP; for Emax: read-out: (Emax) GLP-1R
Summary of the method: as §1

[3] = Table 3, read-out: EC50 GIP-R/nM
[4] = Table 3A, read-out: EC50 GIP-R/nM
[5] = PathHunter β-arrestin assay, read-out: β-arrestin activity EC50
[6] = Table 3, read-out: EC50 GLP-1R/nM
[7] = Table 3A, read-out: EC50 GLP-1R/nM

T2 sequence (P43220 24-463): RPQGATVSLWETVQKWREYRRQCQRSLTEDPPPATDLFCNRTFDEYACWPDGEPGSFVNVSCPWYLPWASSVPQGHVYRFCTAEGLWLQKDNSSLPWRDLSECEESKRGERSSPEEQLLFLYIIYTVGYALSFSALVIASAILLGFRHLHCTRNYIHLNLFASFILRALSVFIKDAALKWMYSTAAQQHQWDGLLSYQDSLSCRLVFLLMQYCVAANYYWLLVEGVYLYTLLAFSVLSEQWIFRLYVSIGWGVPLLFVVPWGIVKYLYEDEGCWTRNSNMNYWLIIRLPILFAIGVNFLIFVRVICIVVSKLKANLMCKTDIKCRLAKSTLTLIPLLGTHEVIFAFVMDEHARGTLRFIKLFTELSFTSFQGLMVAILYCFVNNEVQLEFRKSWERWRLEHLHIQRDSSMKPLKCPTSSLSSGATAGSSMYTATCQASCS

Compound: CC[C@H](C)[C@H](NC(=O)[C@H](CO)NC(=O)[C@H](Cc1ccc(O)cc1)NC(=O)[C@H](CC(=O)O)NC(=O)[C@H](CO)NC(=O)[C@@H](NC(=O)[C@H](Cc1ccccc1)NC(=O)[C@@H](NC(=O)CNC(=O)[C@H](CCC(=O)O)NC(=O)C1(C(=O)NCCN2C(=O)CSC2=O)CC1)[C@@H](C)O)[C@@H](C)O)C(=O)N[C@@H](Cc1ccc(O)cc1)C(=O)N[C@@H](CC(C)C)C(=O)N[C@@H](CC(=O)O)C(=O)N[C@@H](CCCCN)C(=O)N[C@@H](CCC(N)=O)C(=O)N[C@@H](C)C(=O)N[C@@H](C)C(=O)NC(C)(C)C(=O)N[C@@H](CCC(=O)O)C(=O)N[C@@H](Cc1ccccc1)C(=O)N[C@H](C(=O)N[C@@H](CC(N)=O)C(=O)N[C@@H](Cc1c[nH]c2ccccc12)C(=O)N[C@@H](CC(C)C)C(=O)N[C@@H](CC(C)C)C(=O)N[C@@H](C)C(=O)NCC(=O)NCC(=O)N1CCC[C@H]1C(=O)N[C@@H](CO)C(=O)N[C@@H](CO)C(=O)NCC(=O)N[C@@H](C)C(=O)N1CCC[C@H]1C(=O)N1CCC[C@H]1C(=O)N1CCC[C@H]1C(=O)N[C@@H](CO)C(=O)N[C@@H](CCCCN)C(N)=O)C(C)C [Compound 135]
- Emax (GIP-R; Table 3): 15 to 22%
- EC50 (GIP-R; [3]): 10 to 100 nM
- Emax (GIP-R; Table 3A): 15 to 22%
- EC50 (GIP-R; [4]): 10 to 1000 nM
- EC50 (GLP-1R [1]; [5]): > 1000 nM
- Emax (GLP-1R [2]; Table 3): 106 to 111%
- EC50 (GLP-1R [2]; [6]): < 1 nM
- Emax (GLP-1R [2]; Table 3A): 106 to 111%
- EC50 (GLP-1R [2]; [7]): < 1 nM

Compound: CC[C@H](C)[C@H](NC(=O)[C@H](CO)NC(=O)[C@H](Cc1ccc(O)cc1)NC(=O)[C@H](CC(=O)O)NC(=O)[C@H](CO)NC(=O)[C@@H](NC(=O)[C@H](Cc1ccccc1)NC(=O)[C@@H](NC(=O)CNC(=O)[C@H](CCC(=O)O)NC(=O)CSCC(=O)NCCN1C(=O)c2ccc(C(C)(C)C)cc2C1=O)[C@@H](C)O)[C@@H](C)O)C(=O)N[C@@H](Cc1ccc(O)cc1)C(=O)N[C@@H](CC(C)C)C(=O)N[C@@H](CC(=O)O)C(=O)N[C@@H](CCCCN)C(=O)N[C@@H](CCC(N)=O)C(=O)N[C@@H](C)C(=O)N[C@@H](C)C(=O)NC(C)(C)C(=O)N[C@@H](CCC(=O)O)C(=O)N[C@@H](Cc1ccccc1)C(=O)N[C@H](C(=O)N[C@@H](CC(N)=O)C(=O)N[C@@H](Cc1c[nH]c2ccccc12)C(=O)N[C@@H](CC(C)C)C(=O)N[C@@H](CC(C)C)C(=O)N[C@@H](C)C(=O)NCC(=O)NCC(=O)N1CCC[C@H]1C(=O)N[C@@H](CO)C(=O)N[C@@H](CO)C(=O)NCC(=O)N[C@@H](C)C(=O)N1CCC[C@H]1C(=O)N1CCC[C@H]1C(=O)N1CCC[C@H]1C(=O)N[C@@H](CO)C(=O)N[C@@H](CCCCN)C(N)=O)C(C)C [Compound 164]
- EC50 (GIP-R; EC50 GIP-R/nM, Table 3): 10 to 100 nM
- EC50 (GIP-R; EC50 GIP-R/nM, Table 3A): 10 to 100 nM
- Emax (GIP-R; Table 3): 99 to 105%
- Emax (GIP-R; Table 3A): 99 to 105%
- EC50 (GLP-1R [1]): > 1000 nM
- EC50 (GLP-1R [2]; EC50 GLP-1R/nM, Table 3): 10 to 100 nM
- EC50 (GLP-1R [2]; EC50 GLP-1R/nM, Table 3A): 10 to 100 nM
- Emax (GLP-1R [2]; Table 3): 68%
- Emax (GLP-1R [2]; Table 3A): 68%

Compound: CC[C@H](C)[C@H](NC(=O)[C@H](CO)NC(=O)[C@H](Cc1ccc(O)cc1)NC(=O)[C@H](CC(=O)O)NC(=O)[C@H](CO)NC(=O)[C@@H](NC(=O)[C@H](Cc1ccccc1)NC(=O)[C@@H](NC(=O)CNC(=O)[C@H](CCC(=O)O)NC(=O)CSCC(=O)NCCN1C(=O)c2ccccc2C1=O)[C@@H](C)O)[C@@H](C)O)C(=O)N[C@@H](Cc1ccc(O)cc1)C(=O)N[C@@H](CC(C)C)C(=O)N[C@@H](CC(=O)O)C(=O)N[C@@H](CCCCN)C(=O)N[C@@H](CCC(N)=O)C(=O)N[C@@H](C)C(=O)N[C@H](C(=O)NC(C)(C)C(=O)N[C@@H](CCC(=O)O)C(=O)N[C@@H](Cc1ccccc1)C(=O)N[C@H](C(=O)N[C@@H](CC(N)=O)C(=O)N[C@@H](Cc1c[nH]c2ccccc12)C(=O)N[C@@H](CC(C)C)C(=O)N[C@@H](CC(C)C)C(=O)N[C@@H](C)C(=O)NCC(=O)NCC(=O)N1CCC[C@H]1C(=O)N[C@@H](CO)C(=O)N[C@@H](CO)C(=O)NCC(=O)N[C@@H](C)C(=O)N1CCC[C@H]1C(=O)N1CCC[C@H]1C(=O)N1CCC[C@H]1C(=O)N[C@@H](CO)C(=O)N[C@@H](CCCCN)C(N)=O)C(C)C)C(C)C [Compound 147] (X1-EGTFTSDYSIYLDKQAV[Aib]EFVNWLLAGGPSSGAPPPSK-NH2)
- EC50 (GIP-R; EC50 GIP-R/nM, Table 3): < 0.1 nM
- EC50 (GIP-R; EC50 GIP-R/nM, Table 3A): < 0.1 nM
- Emax (GIP-R; Table 3): 114 to 128%
- Emax (GIP-R; Table 3A): 114 to 128%
- EC50 (GLP-1R [1]): > 1000 nM
- EC50 (GLP-1R [2]; EC50 GLP-1R/nM, Table 3): 1 to 10 nM
- EC50 (GLP-1R [2]; EC50 GLP-1R/nM, Table 3A): 1 to 10 nM
- Emax (GLP-1R [2]; Table 3): 87 to 97%
- Emax (GLP-1R [2]; Table 3A): 87 to 97%

Compound: CCCCCCCCCCCCCCCC(=O)N[C@@H](CCC(=O)NCCCC[C@H](NC(=O)[C@H](CO)NC(=O)[C@@H]1CCCN1C(=O)[C@@H]1CCCN1C(=O)[C@@H]1CCCN1C(=O)[C@H](C)NC(=O)CNC(=O)[C@H](CO)NC(=O)[C@H](CO)NC(=O)[C@@H]1CCCN1C(=O)CNC(=O)CNC(=O)[C@H](C)NC(=O)[C@H](CC(C)C)NC(=O)[C@H](CC(C)C)NC(=O)[C@H](Cc1c[nH]c2ccccc12)NC(=O)[C@H](CC(N)=O)NC(=O)[C@@H](NC(=O)[C@H](Cc1ccccc1)NC(=O)[C@H](CCC(=O)O)NC(=O)C(C)(C)NC(=O)[C@H](C)NC(=O)[C@H](C)NC(=O)[C@H](CCC(N)=O)NC(=O)[C@H](CCCCN)NC(=O)[C@H](CC(=O)O)NC(=O)[C@H](CC(C)C)NC(=O)[C@H](Cc1ccc(O)cc1)NC(=O)[C@@H](NC(=O)[C@H](CO)NC(=O)[C@H](Cc1ccc(O)cc1)NC(=O)[C@H](CC(=O)O)NC(=O)[C@H](CO)NC(=O)[C@@H](NC(=O)[C@H](Cc1ccccc1)NC(=O)[C@@H](NC(=O)CNC(=O)[C@H](CCC(=O)O)NC(=O)CCCNC(=O)CCN1CCCCC1=O)[C@@H](C)O)[C@@H](C)O)[C@@H](C)CC)C(C)C)C(N)=O)C(=O)O [Compound 15]
- Emax (GIP-R; Table 3): 20%
- EC50 (GIP-R; [3]): 1 to 10 nM
- Emax (GIP-R; Table 3A): 20%
- EC50 (GIP-R; [4]): 10 to 100 nM
- EC50 (GLP-1R [1]; [5]): > 1000 nM
- Emax (GLP-1R [2]; Table 3): 93%
- EC50 (GLP-1R [2]; [6]): 0.1 to 1 nM
- Emax (GLP-1R [2]; Table 3A): 93%
- EC50 (GLP-1R [2]; [7]): 0.1 to 1 nM

Compound: CCCCCCCCCCCCCCCC(=O)N[C@@H](CCC(=O)NCCCC[C@H](NC(=O)[C@H](CO)NC(=O)[C@@H]1CCCN1C(=O)[C@@H]1CCCN1C(=O)[C@@H]1CCCN1C(=O)[C@H](C)NC(=O)CNC(=O)[C@H](CO)NC(=O)[C@H](CO)NC(=O)[C@@H]1CCCN1C(=O)CNC(=O)CNC(=O)[C@H](C)NC(=O)[C@H](CC(C)C)NC(=O)[C@H](CC(C)C)NC(=O)[C@H](Cc1c[nH]c2ccccc12)NC(=O)[C@H](CC(N)=O)NC(=O)[C@@H](NC(=O)[C@H](Cc1ccccc1)NC(=O)[C@H](CCC(=O)O)NC(=O)C(C)(C)NC(=O)[C@H](C)NC(=O)[C@H](C)NC(=O)[C@H](CCC(N)=O)NC(=O)[C@H](CCCCN)NC(=O)[C@H](CC(=O)O)NC(=O)[C@H](CC(C)C)NC(=O)[C@H](Cc1ccc(O)cc1)NC(=O)[C@@H](NC(=O)[C@H](CO)NC(=O)[C@H](Cc1ccc(O)cc1)NC(=O)[C@H](CC(=O)O)NC(=O)[C@H](CO)NC(=O)[C@@H](NC(=O)[C@H](Cc1ccccc1)NC(=O)[C@@H](NC(=O)CNC(=O)[C@H](CCC(=O)O)NC(=O)C(C)(C)NC(=O)CCN1CCCCC1=O)[C@@H](C)O)[C@@H](C)O)[C@@H](C)CC)C(C)C)C(N)=O)C(=O)O [Compound 210]
- Emax (GIP-R; Table 3A): 40%
- EC50 (GIP-R; [4]): 10 to 100 nM
- EC50 (GLP-1R [1]; [5]): 10 to 1000 nM
- Emax (GLP-1R [2]; Table 3A): 90%
- EC50 (GLP-1R [2]; [7]): < 0.1 nM

Compound: CCCCCCCCCCCCCCCC(=O)N[C@@H](CCC(=O)NCCCC[C@H](NC(=O)[C@H](CO)NC(=O)[C@@H]1CCCN1C(=O)[C@@H]1CCCN1C(=O)[C@@H]1CCCN1C(=O)[C@H](C)NC(=O)CNC(=O)[C@H](CO)NC(=O)[C@H](CO)NC(=O)[C@@H]1CCCN1C(=O)CNC(=O)CNC(=O)[C@H](C)NC(=O)[C@H](CC(C)C)NC(=O)[C@H](CC(C)C)NC(=O)[C@H](Cc1c[nH]c2ccccc12)NC(=O)[C@H](CC(N)=O)NC(=O)[C@@H](NC(=O)[C@H](Cc1ccccc1)NC(=O)[C@H](CCC(=O)O)NC(=O)C(C)(C)NC(=O)[C@H](C)NC(=O)[C@H](C)NC(=O)[C@H](CCC(N)=O)NC(=O)[C@H](CCCCN)NC(=O)[C@H](CC(=O)O)NC(=O)[C@H](CC(C)C)NC(=O)[C@H](Cc1ccc(O)cc1)NC(=O)[C@@H](NC(=O)[C@H](CO)NC(=O)[C@H](Cc1ccc(O)cc1)NC(=O)[C@H](CC(=O)O)NC(=O)[C@H](CO)NC(=O)[C@@H](NC(=O)[C@H](Cc1ccccc1)NC(=O)[C@@H](NC(=O)CNC(=O)[C@H](CCC(=O)O)NC(=O)CSCC(=O)NCCN1CCN(C)C(=O)C1)[C@@H](C)O)[C@@H](C)O)[C@@H](C)CC)C(C)C)C(N)=O)C(=O)O [Compound 38]
- Emax (GIP-R; Table 3): 18 to 43%
- EC50 (GIP-R; [3]): 1 to 10 nM
- Emax (GIP-R; Table 3A): 18 to 43%
- EC50 (GIP-R; [4]): 1 to 1000 nM
- EC50 (GLP-1R [1]; [5]): > 1000 nM
- Emax (GLP-1R [2]; Table 3): 97 to 104%
- EC50 (GLP-1R [2]; [6]): 0.1 to 1 nM
- Emax (GLP-1R [2]; Table 3A): 97 to 104%
- EC50 (GLP-1R [2]; [7]): 0.1 to 1 nM
